Like-named read-outs stand apart in the source and are kept apart here.
Legend:
[1] = Oral pharmacokinetics of naratriptan in rats, alone or combined with an absorption enhancer carrier; assay type: in vivo, Sprague-Dawley rats; conditions: Nar 10 mg/kg, carrier 200 mg/kg
Procedure: In the present invention, the delivery system is the pharmaceutical formulations which may be in the form of a liquid or solid. Liquid formulations may be water-based. The absorption enhancer was dissolved in deionized water. 10 N NaOH solution was used to help dissolving acid form carriers. HCl was added to lower pH of the absorption enhancer stock solution if the pH was higher than 7.4. Naratriptan powder was added to the absorption enhancer solution 5 minutes before dosing. The final concentration of drug was 10 mg/ml, and the final concentration of carrier was 200 mg/ml for the study.
Naratriptan is also designated Nar. Naratriptan was administered alone to rates orally as a control. For oral dosing, single solutions were administrated at time 0, in the following manner: (a) each absorption enhancer carrier (200 mg/kg) in combination with Nar (10 mg/kg) was administered orally to rats; and (b) Nar (10 mg/kg) alone was administered orally to rats. Blood samples were collected by retro-orbital bleed under CO2 anesthesia pre-dosing (0 minute), and 5, 15, 30, 40, 50, 60, 120 and 240 minutes after dosing. […] Both, the Nar/2-HPOD and Nar/2-HPHM combination took approximately ½ the time of Naratriptan alone. […] Also the mean Cmax value of the Nar/4-PPED combination was approximately 2-fold higher compared to that obtained following Naratriptan alone.

[2] = cited from earlier work
[3] = Sprague-Dawley, rat, naratriptan in plasma, fasted male rats, single oral dose, n=5

time of mean peak Naratriptan plasma concentration post-dose ([1]; Example 1, rats, oral): 27 min | Cmax [1, 3]: 1050 ng/mL | Tmax [1, 3]: 27 min | AU Clast ([1]; naratriptan in plasma, fasted male rats, single oral dose, n=5): 62851 ng·min/mL
SMILES: CNS(=O)(=O)CCc1ccc2[nH]cc(C3CCN(C)CC3)c2c1 [Naratriptan]
time to peak concentrations ([2]; 2.5 mg tablet orally): 2 to 3 h | Tmax ([2]; during a migraine attack): 180 to 240 min | oral bioavailability ([2]; naratriptan tablets): about 70%

Reference: patent publication US8148578B2, “Fast acting naratriptan composition” (Emisphere Technologies Inc., priority 2008, dated 2012)
